Measured values published in ChEMBL document CHEMBL6134830, “Naturally inspired chimeric quinolone derivatives to reverse bacterial drug resistance” (Eur J Med Chem, 2025).
In brackets after ≈: the same amount, converted by molar mass. Activity calls are given as the source filed them. The calls are words filed in the database; no cut-off is given here.

Legend:
[1] = test system: Mus musculus; assay: Anti-inflammatory activity against subcutaneous abscess ICR mouse model infected with methicillin-resistant Staphylococcus aureus assessed as reduction in TNF-alpha level at 25 mg/kg, sc measured at 48 hrs post-injection by ELISA method; type: functional, organism-based
[2] = test system: Cell membrane; assay: Disruption of cell membrane in methicillin-resistant Staphylococcus aureus assessed as PI-positive bacteria at 8 times MIC measured after 30 mins by PI staining based flow cytometry analysis (reference value: 7.49 %); type: subcellular
[3] = test system: Staphylococcus aureus; assay: Antimicrobial activity against Methicillin-resistant Staphylococcus aureus assessed as reduction in bacterial growth at 4 times MIC measured for 0.5 to 24 hrs by time-kill kinetics assay; type: functional, organism-based; details: time 0.5-24 hrs
[4] = test system: Staphylococcus aureus; assay: Antibacterial activity against methicillin-resistant Staphylococcus aureus infected in ICR mouse model of subcutaneous abscess assessed as reduction in infiltration of inflammatory cells at 25 mg/kg, sc measured at 48 hrs post-injection by H and E/Masson staining based analysis; type: functional, organism-based
[5] = test system: Staphylococcus aureus; assay: Antibacterial activity against methicillin-resistant Staphylococcus aureus infected in ICR mouse model of subcutaneous abscess assessed as effect on skin abscesses at 25 mg/kg, sc measured at 48 hrs post-injection; type: functional, organism-based
[6] = test system: Cell membrane; assay: Disruption of cell membrane in methicillin-resistant Staphylococcus aureus at 4 times MIC measured after 4 hrs by scanning electron microscopic analysis; type: subcellular
[7] = test system: L929; assay: Cytotoxicity against mouse L929 cells assessed as reduction in cell viability at 100 microg/mL incubated for 24 hrs by MTT assay; type: toxicity, cell-based; details: l929, 24 h, dose 100 µg/ml
[8] = test system: Staphylococcus aureus; assay: Antibacterial activity against methicillin-resistant Staphylococcus aureus infected in ICR mouse model of subcutaneous abscess assessed as reduction in IL-6 level at 25 mg/kg, sc measured at 48 hrs post-injection by ELISA method; type: functional, organism-based
[9] = test system: Enterococcus gallinarum; assay: Antimicrobial activity against Enterococcus gallinarum ATCC 49573 assessed as inhibition of bacterial growth measured after 20 hrs by CLSI protocol based Muller Hinton broth assay; type: functional
[10] = test system: Escherichia coli; assay: Antimicrobial activity against Escherichia coli ATCC 25922 measured after 5 to 25 passages at sub-MIC incubated for 12 hrs; type: functional, organism-based
[11] = Toxicity in ICR mouse assessed as pathological change in liver at 25 mg/kg, sc administered as single dose and measured at 2 hrs post-infection by H and E staining based analysis; type: organism-based; details: in vivo
[12] = test system: Staphylococcus aureus; assay: Antimicrobial activity against Methicillin-resistant Staphylococcus aureus assessed as reduction in bacterial growth at 4 times MIC measured after 8 hrs by time-kill kinetics assay relative to control; type: functional; parameters: scale not given: the % may be the effect or the level left
[13] = test system: Staphylococcus aureus; assay: Antimicrobial activity against Methicillin-resistant Staphylococcus aureus ATCC 33591 measured after 5 to 25 passages at sub-MIC incubated for 12 hrs; type: functional, organism-based
[14] = Toxicity in ICR mouse assessed as pathological change in skin at 25 mg/kg, sc administered as single dose and measured at 2 hrs post-infection by H and E staining based analysis; type: organism-based; details: in vivo
[15] = test system: Cell membrane; assay: Disruption of cell membrane in methicillin-resistant Staphylococcus aureus assessed as PI-positive bacteria at 2 times MIC measured after 30 mins by PI staining based flow cytometry analysis (reference value: 7.49 %); type: subcellular
[16] = test system: Escherichia coli; assay: Antimicrobial activity against Escherichia coli ATCC 25922 assessed as inhibition of bacterial growth measured after 20 hrs by CLSI protocol based Muller Hinton broth assay; type: functional
[17] = Toxicity in ICR mouse assessed as pathological change in heart at 25 mg/kg, sc administered as single dose and measured at 2 hrs post-infection by H and E staining based analysis; type: organism-based; details: in vivo
[18] = test system: Mus musculus; assay: Anti-inflammatory activity against subcutaneous abscess ICR mouse model infected with methicillin-resistant Staphylococcus aureus assessed as reduction in IL-6 level at 25 mg/kg, sc measured at 48 hrs post-injection by ELISA method; type: functional, organism-based
[19] = test system: Staphylococcus aureus; assay: Antibacterial activity against methicillin-resistant Staphylococcus aureus infected in ICR mouse model of subcutaneous abscess assessed as bacterial elimation at 25 mg/kg, sc measured at 48 hrs post-injection relative to control; type: functional
[20] = test system: Pseudomonas aeruginosa; assay: Antimicrobial activity against Pseudomonas aeruginosa ATCC 27853 assessed as inhibition of bacterial growth measured after 20 hrs by CLSI protocol based Muller Hinton broth assay; type: functional
[21] = Toxicity in ICR mouse assessed as pathological change in kidney at 25 mg/kg, sc administered as single dose and measured at 2 hrs post-infection by H and E staining based analysis; type: organism-based; details: in vivo
[22] = test system: Staphylococcus aureus; assay: Antibacterial activity against methicillin-resistant Staphylococcus aureus infected in ICR mouse model of subcutaneous abscess assessed as bacterial load at 25 mg/kg, sc measured at 48 hrs post-injection; type: functional
[23] = test system: Cell membrane; assay: Disruption of cell membrane in methicillin-resistant Staphylococcus aureus assessed as PI-positive bacteria at 4 times MIC measured after 30 mins by PI staining based flow cytometry analysis (reference value: 7.49 %); type: subcellular
[24] = test system: Staphylococcus aureus; assay: Antibacterial activity against methicillin-resistant Staphylococcus aureus infected in ICR mouse model of subcutaneous abscess assessed as effect on lesions at 25 mg/kg, sc measured at 48 hrs post-injection; type: functional, organism-based
[25] = test system: Cell membrane; assay: Disruption of cell membrane in methicillin-resistant Staphylococcus aureus at 8 times MIC measured after 4 hrs by scanning electron microscopic analysis; type: subcellular
[26] = test system: Staphylococcus aureus; assay: Antimicrobial activity against Methicillin-resistant Staphylococcus aureus assessed as reduction in bacterial load at 4 times MIC measured after 4 hrs by time-kill kinetics assay; type: functional
[27] = test system: Enterococcus faecalis; assay: Antimicrobial activity against Enterococcus faecalis ATCC 19433 assessed as inhibition of bacterial growth measured after 20 hrs by CLSI protocol based Muller Hinton broth assay; type: functional
[28] = test system: Staphylococcus aureus; assay: Antimicrobial activity against Staphylococcus aureus ATCC 25923 assessed as inhibition of bacterial growth measured after 20 hrs by CLSI protocol based Muller Hinton broth assay; type: functional
[29] = Hemolytic activity in Sprague-Dawley rat Red blood cells at 200 ug/ml incubated for 1 hr by absorbance based analysis; type: toxicity, cell-based; details: erythrocyte, dose 200 µg/ml
[30] = Toxicity in ICR mouse assessed as pathological change in lung at 25 mg/kg, sc administered as single dose and measured at 2 hrs post-infection by H and E staining based analysis; type: organism-based; details: in vivo
[31] = Toxicity in ICR mouse assessed as pathological change in spleen at 25 mg/kg, sc administered as single dose and measured at 2 hrs post-infection by H and E staining based analysis; type: organism-based; details: in vivo
[32] = Toxicity in ICR mouse assessed as compatible skin at 25 mg/kg, sc administered as single dose and measured at 2 hrs post-infection by H and E staining based analysis; type: organism-based; details: in vivo
[33] = test system: Staphylococcus aureus; assay: Antimicrobial activity against Methicillin-resistant Staphylococcus aureus ATCC 43300 assessed as inhibition of bacterial growth measured after 20 hrs by CLSI protocol based Muller Hinton broth assay; type: functional
[34] = test system: Acinetobacter baumannii; assay: Antimicrobial activity against Acinetobacter baumannii ATCC 19606 assessed as inhibition of bacterial growth measured after 20 hrs by CLSI protocol based Muller Hinton broth assay; type: functional

Question: For `O=C(O)c1cn(C2CC2)c2cc(N3CCNCC3)c(F)cc2c1=O` [CIPROFLOXACIN], which Activity [1] is on record?
Answer: Active

Question: And the Activity [2]?
Answer: 9.46%

Question: And the Activity [3]?
Answer: inactive

Question: And the Activity [4]?
Answer: Active; Partial Reduction In Inflammation

Question: And the Activity [5]?
Answer: inactive

Question: What about the Activity [6] of the same compound?
Answer: inactive

Question: And the Activity [7]?
Answer: Non-toxic

Question: With `CCCCCCCCCNC(=O)[C@H](CCCCN)NC(=O)[C@H](CCCNC(=N)N)NC(=O)[C@H](CCCCN)NC(=O)c1ccc(C(=O)N2CCN(c3cc4c(cc3F)c(=O)c(C(=O)O)cn4C3CC3)CC2)cc1` as the compound, how does the Activity [8] read?
Answer: Active

Question: What about the MIC [9] of the same compound?
Answer: 12.5 µg/mL (≈ 12.3 µM)

Question: What about the Activity [10] of the same compound?
Answer: Active

Question: And the Activity [11]?
Answer: Non-toxic

Question: What about the Activity [12] of the same compound?
Answer: 100%

Question: What about the Activity [13] of the same compound?
Answer: Active

Question: What about the Activity [14] of the same compound?
Answer: Non-toxic

Question: And the Activity [15]?
Answer: 12%

Question: What about the MIC [16] of the same compound?
Answer: 3.12 µg/mL (≈ 3.07 µM)

Question: What about the Activity [1] of the same compound?
Answer: Active

Question: And the Activity [17]?
Answer: Non-toxic

Question: And the Activity [18]?
Answer: Active

Question: What about the Activity [19] of the same compound?
Answer: 99.99%

Question: And the MIC [20]?
Answer: 3.12 µg/mL (≈ 3.07 µM)

Question: What about the Activity [21] of the same compound?
Answer: Non-toxic

Question: And the Activity [2]?
Answer: 58.4%

Question: What about the Activity [22] of the same compound?
Answer: 4.4 log10CFU/ml

Question: What about the Activity [23] of the same compound?
Answer: 26.8%

Question: And the Activity [24]?
Answer: Active

Question: What about the Activity [25] of the same compound?
Answer: Active

Question: What about the Activity [26] of the same compound?
Answer: 3.6 log10CFU/ml

Question: And the Activity [4]?
Answer: Active

Question: And the MIC [27]?
Answer: 12.5 µg/mL (≈ 12.3 µM)

Question: What about the MIC [28] of the same compound?
Answer: 1.56 µg/mL (≈ 1.53 µM)

Question: What about the Activity [6] of the same compound?
Answer: Active

Question: And the Activity [7]?
Answer: Non-toxic

Question: What about the Activity [29] of the same compound?
Answer: Non-toxic

Question: And the Activity [30]?
Answer: Non-toxic

Question: What about the Activity [31] of the same compound?
Answer: Non-toxic

Question: What about the Activity [32] of the same compound?
Answer: Non-toxic

Question: What about the MIC [33] of the same compound?
Answer: 6.25 µg/mL (≈ 6.14 µM)

Question: And the MIC [34]?
Answer: 6.25 µg/mL (≈ 6.14 µM)
